In US20050220726A1, “Use of sugar esters in cosmetic and/or pharmaceutical preparations” (priority 2003, published 2005):

How the values were obtained:
[1] = tested on: bacterial collagenase (clostridium histolyticum); experiment: Collagenase inhibition on FITC-marked gelatin; type: biochemical; conditions: Conc. [w/v] 0.3; 60 mins. at 20° C.
Method: In the event of inflammation, skin proteases, for example collagenase, are released from the polymorphonuclear neutrophilic granulocytes or macrophages. A similar process takes place in the skin of elderly people on exposure to UV rays. As already mentioned, the proteases—also known as matrix metalloproteases (MMPs) through their content of central zinc ions—catalyze the fragmentation of connective tissue proteins. The test substances were tested for collagenase inhibition using bacterial collagenase (clostridium histolyticum) on gelatin marked with fluorochromium (FITC, Calbiochem) as a natural nutrient medium. The incubation time was 60 mins. at 20° C.; the hydrolysis of the substrate was monitored by fluorescence at 393 nm (excitation at 328 nm). The results are set out in Table 6 as the collagenase inhibition in %.

human fibroblasts [2] = experiment: Anti-stress effect on UV-A-damaged fibroblasts; type: cell-based; conditions: conc. 0.001 % w/v, + UV-A 20 J/cm^2; for Cell proteins: blank sample = 100; for GSH/proteins: blank sample = 100, blank + UV-A = 65
Method: UV-A radiation in the 320 to 400 nm range induces oxidative stress which is mainly produced by the activation of photosensitive biological components which in turn catalyze the formation of ROS-like superoxide anions, hydrogen peroxide and singlet oxygen atoms. The anti-UV-A effect was tested on fibroblasts because UV-A radiation penetrates through the dermis where it causes oxidative damage by lipoperoxidation of the cell membrane and a reduction in the content of reduced glutathione (GHS). To this end, human fibroblasts were cultivated as described in a), exposed to UV-A rays (20 J/cm^2) and the cell counts and the GSH content subsequently determined. The results are set out in Table 3, where they are expressed in %-rel. against a blank sample, and represent the results of 3 series of measurements with triple determination.

human fibroblasts [3] = experiment: Regenerative effect and detoxifying potential: GSH in human fibroblasts; type: cell-based; conditions: conc. 0.001 % w/v; 3 days in test solution; against blank sample = 100
Method: Glutathione (GSH) is a special protein which is produced by the cells for protection against oxidative stress and environmental poisons, more particularly against heavy metals. The three amino acids involved in the reduced form of GSH are linked to special cytoplasmatic enzymes which need ATP for activation. An increase in the GSH concentration leads to an increase in the glutatione-S-transferase activity, a detoxifying enzyme. The stimulation for detoxification by the test substances was tested on human fibroblasts by measurement of the GSH. In a series of tests, fibroblasts were first incubated for 3 days at 37° C. in a nutrient solution and then for 3 days at the same temperature in a test solution. The protein content in the cells was then determined by the Bradford method and the GSH concentration by the Hissin method [cf. Analytical Biochem. 74, 214-226 1977]. The results are set out in Table 2, where they are expressed in %-rel. against a blank sample, and represent the results of 3 series of measurements with triple determination.

Propionibacterium acnes [4] = experiment: Agar diffusion method, inhibition zones; type: cell-based; conditions: filter paper with 20 μl test substance; 18 to 24 h at 37° C., anaerobic
Method: (§1) The antibacterial activity of the test substances was tested by the diffusion method on agar plates or the agar dilution method. In this method, a round filter paper of defined diameter is first impregnated with the test solution and then applied to the surface of an agar plate inoculated beforehand with the test microorganisms. The size of the inhibition zones is then determined after defined times. In particular, it is possible by this method to determine the MIC (Minimum Inhibitory Concentration) as the lowest concentration of test substance with which complete inhibition of the microorganisms can be obtained.
(§2) Agar diffusion method. The inoculum was prepared using a fresh culture in a stationary growth phase (after ca. 18-24 h) in a BHI solution (brain-heart Infusion). The bacterial suspension was adjusted to 0.5 MacFarland units, corresponding to 1.5 10^8 colony-forming units (cfu)/ml; the suspension was then diluted with a sodium chloride solution (1:100) to adjust a value of 1.5 10^6 cfu/ml. Mueller-Hinton agar (Staphylococcus epidermidis, Staphylococcus aureus) and Wilkins-Chalgrens agar containing 5% by weight sheep's blood (Propionibacterium acnes) were then sterilized for 15 mins. at 121° C. and then placed in Petri dishes. 2 to 4 ml of the bacterial suspension were then added to the Petri dishes, followed by drying at room temperature. The filter papers were impregnated with 20 μl of the test substances and applied to the surface of the agar plates. The inoculated Petri dishes were incubated for 18 to 24 h at 37° C. (the Petri dishes containing Propionibacterium acnes under anaerobic conditions) and the antimicrobial activity was then determined by determination of the growth inhibition zones. The results are set out in Table 10 and represent the diameters of the inhibition zones in mm.

Staphylococcus aureus [5] = experiment: Agar diffusion method, inhibition zones; type: cell-based; conditions: filter paper with 20 μl test substance; 18 to 24 h at 37° C.
Method: as §1, §2

[6] = tested on: Staphylococcus epidermidis; experiment: Agar diffusion method, inhibition zones; type: cell-based; conditions: filter paper with 20 μl test substance; 18 to 24 h at 37° C.
Method: as §1, §2

Propionibacterium acnes [7] = experiment: Agar dilution method (MIC determination); type: cell-based; conditions: 18 to 24 h at 37° C.
Method: as §1, with “obtained. Agar dilution method (MIC determination). Various agars were prepared as described above, test substances were added in various concentrations, homogenized and dried. The Petri dishes were then inoculated with quantities of 2 μl of the bacterial suspension. After each drying step the Petri dishes were incubated for 18 to 24 h at 37° C. […] The results represent the averages of double determinations.” for “obtained.”

Staphylococcus aureus [8] = experiment: Agar dilution method (MIC determination); type: cell-based; conditions: 18 to 24 h at 37° C.
Method: as §1, with “obtained. Agar dilution method (MIC determination). Various agars were prepared as described above, test substances were added in various concentrations, homogenized and dried. The Petri dishes were then inoculated with quantities of 2 μl of the bacterial suspension. After each drying step the Petri dishes were incubated for 18 to 24 h at 37° C. […] The results represent the averages of double determinations.” for “obtained.”

[9] = tested on: Staphylococcus epidermidis; experiment: Agar dilution method (MIC determination); type: cell-based; conditions: 18 to 24 h at 37° C.
Method: as §1, with “obtained. Agar dilution method (MIC determination). Various agars were prepared as described above, test substances were added in various concentrations, homogenized and dried. The Petri dishes were then inoculated with quantities of 2 μl of the bacterial suspension. After each drying step the Petri dishes were incubated for 18 to 24 h at 37° C. […] The results represent the averages of double determinations.” for “obtained.”

[10] = tested on: melanocytes (B16 cell line); experiment: Inhibition of melanin synthesis in B16 melanocytes; type: cell-based; conditions: 3 days, blank value = 100
Method: Melanin is the pigment responsible for the color of the skin and hair. It is formed in special organelles, the melanosomes, which occur in the melanocytes of the basal layer of the human epidermis. The biosynthesis of melanin begins with the amino acid tyrosine which is oxidized to DOPA (dihydroxyphenylalanine) in the presence of tyrosinase. The DOPA then polymerizes to melanin. […] After incubation for 3 days at 37° C./5% CO2, the nutrient medium was replaced by a solution containing the test substances in various concentrations. After incubation for another 3 days, the cell protein content (Bradford's method) and the content of synthesized melanin were determined through the optical density of the homogenizate at 475 nm. The results are expressed in % against a blank value and are set out in Table 7.

Trehalose palmitate gave a Collagenase inhibition [1] of 9 %-rel, a Cell proteins (human fibroblasts [2]) of 124 %-rel and a GSH/proteins (human fibroblasts [2]) of 87 %-rel. The GSH/proteins (human fibroblasts [3]) was 125 %-rel, the “Inhibition zones, Propionibacterium acnes” value (Propionibacterium acnes [4]) was 0 mm and the “Inhibition zones, Staphylococcus aureus” value (Staphylococcus aureus [5]) was 14 mm. The “Inhibition zones, Staphylococcus epidermidis” value [6] was 11 mm.
Trehalose stearate was tested, and the Cell proteins (human fibroblasts [2]) was 124 %-rel, the GSH/proteins (human fibroblasts [2]) was 84 %-rel and the GSH/proteins (human fibroblasts [3]) was 141 %-rel. The “MIC, Propionibacterium acnes” value (Propionibacterium acnes [7]) was 1250 mg/L, the “MIC, Staphylococcus aureus” value (Staphylococcus aureus [8]) was over 10000 mg/L and the “MIC, Staphylococcus epidermidis” value [9] was 625 mg/L. The Cell melanin ([10]; conc. 0.001 % w/v) was 81 %-rel, the Cell proteins ([10]; conc. 0.001 % w/v) was 97 %-rel and the Cell melanin ([10]; conc. 0.003 % w/v) was 41 %-rel. For the same substance, the Cell proteins ([10]; conc. 0.003 % w/v) was 93 %-rel, the “Inhibition zones, Propionibacterium acnes” value (Propionibacterium acnes [4]) was 0 mm and the “Inhibition zones, Staphylococcus aureus” value (Staphylococcus aureus [5]) was 12 mm. The “Inhibition zones, Staphylococcus epidermidis” value [6] was 11 mm.
